Measurements reported in PubChem BioAssay (NCI).
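All cell lines were grown in 96-well plates and treated with compound for 48 hours. Here, GI50 denotes the concentration required for 50% inhibition of growth. TGI denotes the concentration required for complete inhibition of growth.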

Experiments:
Test in all cases: NCI tumour cell line growth inhibition, 48 h
HCT-116 colon = test system: HCT-116 colon
UACC-257 melanoma = test system: UACC-257 melanoma
LOX IMVI melanoma = test system: LOX IMVI melanoma
SW-620 colon = test system: SW-620 colon
SK-MEL-5 melanoma = test system: SK-MEL-5 melanoma
SK-MEL-2 melanoma = test system: SK-MEL-2 melanoma
NCI-H522 lung = test system: NCI-H522 lung
SF-268 CNS = test system: SF-268 CNS
PC-3 prostate = test system: PC-3 prostate
IGROV1 ovarian = test system: IGROV1 ovarian
COLO 205 colon = test system: COLO 205 colon
K-562 leukemia = test system: K-562 leukemia
SF-539 CNS = test system: SF-539 CNS
DU-145 prostate = test system: DU-145 prostate
RXF 393 renal = test system: RXF 393 renal
HL-60(TB) leukemia = test system: HL-60(TB) leukemia
MDA-MB-435 = test system: MDA-MB-435
SN12C renal = test system: SN12C renal
OVCAR-5 ovarian = test system: OVCAR-5 ovarian
OVCAR-4 ovarian = test system: OVCAR-4 ovarian
BT-549 breast = test system: BT-549 breast
HOP-92 NSCLC = test system: HOP-92 NSCLC
KM12 colon = test system: KM12 colon
NCI-H23 lung = test system: NCI-H23 lung
ACHN renal = test system: ACHN renal
HOP-62 NSCLC = test system: HOP-62 NSCLC
SNB-75 CNS = test system: SNB-75 CNS
HT29 colon = test system: HT29 colon
NCI-H460 lung = test system: NCI-H460 lung
A549 NSCLC = test system: A549 NSCLC
MDA-MB-468 breast = test system: MDA-MB-468 breast
OVCAR-3 ovarian = test system: OVCAR-3 ovarian
M14 melanoma = test system: M14 melanoma
TK-10 renal = test system: TK-10 renal
CAKI-1 renal = test system: CAKI-1 renal
SNB-19 CNS = test system: SNB-19 CNS
786-0 renal = test system: 786-0 renal
MALME-3M melanoma = test system: MALME-3M melanoma
HS 578T breast = test system: HS 578T breast
MCF7 breast = test system: MCF7 breast
HCT-15 colon = test system: HCT-15 colon
MOLT-4 leukemia = test system: MOLT-4 leukemia
U251 CNS = test system: U251 CNS
HCC-2998 colon = test system: HCC-2998 colon
SK-OV-3 ovarian = test system: SK-OV-3 ovarian
T-47D breast = test system: T-47D breast
SR leukemia = test system: SR leukemia
NCI-H226 lung = test system: NCI-H226 lung
RPMI-8226 leukemia = test system: RPMI-8226 leukemia
UACC-62 melanoma = test system: UACC-62 melanoma
UO-31 renal = test system: UO-31 renal
SF-295 CNS = test system: SF-295 CNS
A498 renal = test system: A498 renal
OVCAR-8 ovarian = test system: OVCAR-8 ovarian
SK-MEL-28 melanoma = test system: SK-MEL-28 melanoma
MDA-MB-231 breast = test system: MDA-MB-231 breast
EKVX NSCLC = test system: EKVX NSCLC
CCRF-CEM leukemia = test system: CCRF-CEM leukemia

`N#CC1=C(c2cccs2)Nc2c(c(-c3ccccc3)nn2-c2ccccc2)C12C(=O)Nc1ccc(Cl)cc12` (stereo unspecified) gave a GI50 (HCT-116 colon) of 3.95 µM, a TGI (HCT-116 colon) of 16.3 µM and a GI50 (UACC-257 melanoma) of 12.9 µM. The TGI (UACC-257 melanoma) was 25.8 µM, the GI50 (LOX IMVI melanoma) was 6.46 µM and the TGI (LOX IMVI melanoma) was 20.4 µM. For the same compound, the GI50 (SW-620 colon) was 4.56 µM, the TGI (SW-620 colon) was 16.6 µM and the GI50 (SK-MEL-5 melanoma) was 10.8 µM. For the same compound, the TGI (SK-MEL-5 melanoma) was 23.1 µM, the GI50 (SK-MEL-2 melanoma) was 3.97 µM and the TGI (SK-MEL-2 melanoma) was 14.6 µM. For the same compound, the GI50 (NCI-H522 lung) was 2.6 µM, the TGI (NCI-H522 lung) was 9.87 µM and the GI50 (SF-268 CNS) was 3.52 µM. For the same compound, the TGI (SF-268 CNS) was 19 µM, the GI50 (PC-3 prostate) was 3.18 µM and the TGI (PC-3 prostate) was 15.2 µM. For the same compound, the GI50 (IGROV1 ovarian) was 4.93 µM, the TGI (IGROV1 ovarian) was 17.7 µM and the GI50 (COLO 205 colon) was 14.3 µM. It also gave a TGI (COLO 205 colon) of 29.5 µM, a GI50 (K-562 leukemia) of 4.46 µM and a TGI (K-562 leukemia) of 34.1 µM. The GI50 (SF-539 CNS) was 4.77 µM, the TGI (SF-539 CNS) was 17 µM and the GI50 (DU-145 prostate) was 13.9 µM. The TGI (DU-145 prostate) was 30.3 µM, the GI50 (RXF 393 renal) was 3.14 µM and the TGI (RXF 393 renal) was 13.3 µM. For the same compound, the GI50 (HL-60(TB) leukemia) was 3.51 µM, the TGI (HL-60(TB) leukemia) was 11.7 µM and the GI50 (MDA-MB-435) was 11.1 µM. For the same compound, the TGI (MDA-MB-435) was 23.9 µM, the GI50 (SN12C renal) was 4.46 µM and the TGI (SN12C renal) was 16.8 µM. It also gave a GI50 (OVCAR-5 ovarian) of 7.31 µM, a TGI (OVCAR-5 ovarian) of 20.9 µM and a GI50 (OVCAR-4 ovarian) of 4.77 µM. For the same compound, the TGI (OVCAR-4 ovarian) was 21.1 µM, the GI50 (BT-549 breast) was 3.02 µM and the TGI (BT-549 breast) was 13.1 µM. For the same compound, the GI50 (HOP-92 NSCLC) was 2.47 µM, the TGI (HOP-92 NSCLC) was 7.94 µM and the GI50 (KM12 colon) was 3.66 µM. The TGI (KM12 colon) was 13.6 µM, the GI50 (NCI-H23 lung) was 5.57 µM and the TGI (NCI-H23 lung) was 18.2 µM. For the same compound, the GI50 (ACHN renal) was 4.05 µM, the TGI (ACHN renal) was 14.8 µM and the GI50 (HOP-62 NSCLC) was 7.02 µM. It also gave a TGI (HOP-62 NSCLC) of 21.4 µM, a GI50 (SNB-75 CNS) of 2.6 µM and a TGI (SNB-75 CNS) of 13 µM. The GI50 (HT29 colon) was 4.82 µM, the TGI (HT29 colon) was 17.1 µM and the GI50 (NCI-H460 lung) was 4.07 µM. For the same compound, the TGI (NCI-H460 lung) was 14.1 µM, the GI50 (A549 NSCLC) was 4.12 µM and the TGI (A549 NSCLC) was 15.9 µM. It also gave a GI50 (MDA-MB-468 breast) of 4.45 µM, a TGI (MDA-MB-468 breast) of 16.6 µM and a GI50 (OVCAR-3 ovarian) of 6.88 µM. For the same compound, the TGI (OVCAR-3 ovarian) was 19.7 µM, the GI50 (M14 melanoma) was 4.94 µM and the TGI (M14 melanoma) was 18.4 µM. For the same compound, the GI50 (TK-10 renal) was 5.81 µM, the TGI (TK-10 renal) was 20.5 µM and the GI50 (CAKI-1 renal) was 5.26 µM. It also gave a TGI (CAKI-1 renal) of 18.6 µM, a GI50 (SNB-19 CNS) of 3.12 µM and a TGI (SNB-19 CNS) of 14.2 µM. For the same compound, the GI50 (786-0 renal) was 6.43 µM, the TGI (786-0 renal) was 20.6 µM and the GI50 (MALME-3M melanoma) was 14.3 µM. It also gave a TGI (MALME-3M melanoma) of 27.4 µM, a GI50 (HS 578T breast) of 3.22 µM and a TGI (HS 578T breast) of 18.6 µM. It also gave a GI50 (MCF7 breast) of 4.95 µM, a TGI (MCF7 breast) of 19.4 µM and a GI50 (HCT-15 colon) of 3.74 µM. The TGI (HCT-15 colon) was 14.1 µM, the GI50 (MOLT-4 leukemia) was 4.95 µM and the TGI (MOLT-4 leukemia) was 23.4 µM. It also gave a GI50 (U251 CNS) of 3.88 µM, a TGI (U251 CNS) of 14.4 µM and a GI50 (HCC-2998 colon) of 7.13 µM. For the same compound, the TGI (HCC-2998 colon) was 19.8 µM, the GI50 (SK-OV-3 ovarian) was 10.6 µM and the TGI (SK-OV-3 ovarian) was 23.6 µM. For the same compound, the GI50 (T-47D breast) was 5.84 µM, the TGI (T-47D breast) was 33.8 µM and the GI50 (SR leukemia) was 4.93 µM. It also gave a TGI (SR leukemia) of 36.3 µM, a GI50 (NCI-H226 lung) of 11.6 µM and a TGI (NCI-H226 lung) of 28.2 µM. For the same compound, the GI50 (RPMI-8226 leukemia) was 4.3 µM, the TGI (RPMI-8226 leukemia) was 27.5 µM and the GI50 (UACC-62 melanoma) was 4.13 µM. For the same compound, the TGI (UACC-62 melanoma) was 16.9 µM, the GI50 (UO-31 renal) was 2.54 µM and the TGI (UO-31 renal) was 12.2 µM. It also gave a GI50 (SF-295 CNS) of 3.74 µM, a TGI (SF-295 CNS) of 15.9 µM and a GI50 (A498 renal) of 16.8 µM. It also gave a TGI (A498 renal) of 31.2 µM, a GI50 (OVCAR-8 ovarian) of 4.92 µM and a TGI (OVCAR-8 ovarian) of 17.9 µM. The GI50 (SK-MEL-28 melanoma) was 11.1 µM, the TGI (SK-MEL-28 melanoma) was 23.2 µM and the GI50 (MDA-MB-231 breast) was 4.52 µM. It also gave a TGI (MDA-MB-231 breast) of 16.9 µM, a GI50 (EKVX NSCLC) of 4.33 µM and a TGI (EKVX NSCLC) of 18 µM. The GI50 (CCRF-CEM leukemia) was 3.35 µM and the TGI (CCRF-CEM leukemia) was 20.7 µM.
